The source made the active and inactive calls. No cut-off for these calls is given here.
How the values were obtained:
[1] = In vitro activity in agar dilution-streak assay against Gram-negative bacteria at 100 ug/ml; IA means Inactive; assay type: functional
Bacteria = experiment: In vitro activity in agar dilution-streak assay against Gram-positive bacteria at 100 ug/ml; IA means Inactive; assay type: functional, organism-based
A549 = experiment: In vitro inhibitory activity against A549 tumor cell culture; IA= Inactive; assay type: functional, cell-based, Homo sapiens
Nucleic Acid = experiment: Inhibitory against Escherichia coli derived DNA gyrase II as ability to induce strand breakage; IA means Inactive; assay type: nucleic-acid assay
HT-29 = experiment: In vitro inhibitory activity against HT-29 tumor cells; IA= inactive; assay type: functional, cell-based, Homo sapiens
B16-F10 = experiment: In vitro inhibitory activity against B16F10 tumor cells; IA= Inactive; assay type: functional, cell-based, Mus musculus
P388 = experiment: In vitro inhibitory activity against P-388 tumor cells; IA= Inactive; assay type: functional, cell-based, Mus musculus

Compound	Activity [1]	Activity (Bacteria)	IC50 (A549)	Activity (Nucleic Acid)	IC50 (HT-29)	IC50 (B16-F10)	IC50 (P388)
O=C(O)c1cn(C2CC2)c2cc(N3CCNCC3)c(F)cc2c1=O	inactive	inactive	–	–	–	–	–
CCN1CC(C(=O)O)C(=O)c2c(O)c3c(c(O)c21)C(=O)c1ccccc1C3=O (stereo not drawn)	inactive	inactive	Not Active	inactive	Not Active	Not Active	Not Active
O=C1c2ccccc2C(=O)c2c(O)c3c(c(O)c21)C(=O)C(C(=O)O)CN3c1ccc(F)cc1 (stereo not drawn)	inactive	inactive	Not Active	inactive	Not Active	Not Active	Not Active
O=C1c2ccccc2C(=O)c2c(O)c3c(c(O)c21)C(=O)C(C(=O)O)CN3C1CC1 (stereo not drawn)	inactive	inactive	Not Active	inactive	Not Active	Not Active	Not Active

Source: ChEMBL document CHEMBL1129916, “Topoisomerase II inhibitors. Synthetic hybridization of 4-quinolones and anthracyclines” (Bioorg Med Chem Lett, 1997)
